# The supplement of paper PMC11061612
# Key:
# Experiment in all cases: Bliss excess, mean over the matrix (fraction); higher = more synergy
# [1] = test system: SK-LU-1 (Lung Adenocarcinoma)
# Method in brief: (§1)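 Bliss excess equals the observed combination effect minus the expected value EA + EB − EA·EB, where EA and EB are the effects of each agent alone. Combination Emax is the second-highest inhibition within the matrix. Inhibition was scaled from CellTiter-Glo 2.0 luminescence, with 0 set by vehicle wells and 1 by blank wells, after 72 hours of two-drug dosing of cells plated in 1536-well plates.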
# [2] = test system: COLO-668 (Small Cell Lung Carcinoma)
# Method in brief: as §1
# [3] = test system: Mo-T (Other Blood Carcinomas)
# Method in brief: as §1
# [4] = test system: LC-1-sq (Squamous Cell Lung Carcinoma)
# Method in brief: as §1
# [5] = test system: SW982 (Other Solid Carcinomas)
# Method in brief: as §1
# [6] = test system: EFO-21 (Ovarian Carcinoma)
# Method in brief: as §1
# [7] = test system: CADO-ES1 (Ewing's Sarcoma)
# Method in brief: as §1
# [8] = test system: MOG-G-UVW (Low Grade Glioma)
# Method in brief: as §1
# [9] = test system: NCI-H1355 (Lung Adenocarcinoma)
# Method in brief: as §1
# [10] = test system: NCI-H1092 (Small Cell Lung Carcinoma)
# Method in brief: as §1
# [11] = test system: DU-145 (Prostate Carcinoma)
# Method in brief: as §1
# [12] = test system: OACM5-1 (Esophageal Adenocarcinoma)
# Method in brief: as §1
# [13] = test system: NCI-H522 (Lung Adenocarcinoma)
# Method in brief: as §1
# [14] = test system: KMRC-1 (Kidney Carcinoma)
# Method in brief: as §1
# [15] = test system: HCC2998 (Colorectal Carcinoma)
# Method in brief: as §1
# [16] = test system: HCC1500 (Breast Carcinoma)
# Method in brief: as §1
# [17] = test system: KGN (Other Solid Carcinomas)
# Method in brief: as §1
# [18] = test system: ALL-SIL (T-Lymphoblastic Leukemia)
# Method in brief: as §1
# [19] = test system: ME-180 (Cervical Carcinoma)
# Method in brief: as §1
# [20] = test system: SKN (Other Solid Carcinomas)
# Method in brief: as §1
SMILES,Bliss excess [1],Bliss excess [2],Bliss excess [3],Bliss excess [4],Bliss excess [5],Bliss excess [6],Bliss excess [7],Bliss excess [8],Bliss excess [9],Bliss excess [10],Bliss excess [11],Bliss excess [12],Bliss excess [13],Bliss excess [14],Bliss excess [15],Bliss excess [16],Bliss excess [17],Bliss excess [18],Bliss excess [19],Bliss excess [20]
"CN(C)CCCOc1ccc(-c2ccc3ncc4c(c3c2)n(C2CCOCC2)c(=O)n4C)cn1 [AZD0156] + O=C(c1cc(Cc2n[nH]c(=O)c3ccccc23)ccc1F)N1CCN(C(=O)C2CC2)CC1 [Olaparib] (first compound max 3 µM, partner max 3 µM)",-0.017,-0.0077,-0.046,-0.0374,0.0903,-0.0149,0.285,0.204,0.0176,0.0028,-0.0462,-0.0162,-0.0273,-0.0316,0.0824,0.0055,0.156,0.0281,0.0444,0.0023
"C=CCn1c(=O)c2cnc(Nc3ccc(N4CCN(C)CC4)cc3)nc2n1-c1cccc(C(C)(C)O)n1 [AZD1775] + C1CN(CCC1(C(=O)N[C@@H](CCO)C2=CC=C(C=C2)Cl)N)C3=NC=NC4=C3C=CN4 [Capivasertib] (first compound max 3 µM, partner max 3 µM)",0.0164,-0.0726,-0.05,-0.128,-0.0415,-0.0991,0.006,-0.0039,0.0046,-0.0497,-0.055,-0.0553,-0.0028,-0.0762,0.0232,-0.0462,-0.0195,-0.0129,0.0063,-0.0375
"C=CCn1c(=O)c2cnc(Nc3ccc(N4CCN(C)CC4)cc3)nc2n1-c1cccc(C(C)(C)O)n1 [AZD1775] + C[C@@H]1COCCN1C2=NC(=NC(=C2)C3(CC3)[S@](=N)(=O)C)C4=C5C=CNC5=NC=C4 [AZD6738] (first compound max 1 µM, partner max 10 µM)",-0.0774,0.0917,-0.0271,0.0139,-0.019,-0.0492,0.0441,0.0202,0.0055,0.0124,0.02,0.0994,0.0006,-0.002,0.0923,0.0279,-0.0578,0.044,-0.0022,-0.0185
"C=CCn1c(=O)c2cnc(Nc3ccc(N4CCN(C)CC4)cc3)nc2n1-c1cccc(C(C)(C)O)n1 [AZD1775] + O=C(c1cc(Cc2n[nH]c(=O)c3ccccc23)ccc1F)N1CCN(C(=O)C2CC2)CC1 [Olaparib] (first compound max 1 µM, partner max 10 µM)",-0.0306,0.0104,-0.0418,-0.0216,-0.102,-0.0266,0.0402,-0.0329,-0.0671,-0.0342,-0.073,-0.0363,0.0441,-0.0224,-0.057,0.0158,-0.0844,-0.0303,-0.0244,-0.0048
"CCN(CCO)CCCOc1ccc2c(Nc3cc(CC(=O)Nc4cccc(F)c4)[nH]n3)ncnc2c1 [AZD2811] + C=CCn1c(=O)c2cnc(Nc3ccc(N4CCN(C)CC4)cc3)nc2n1-c1cccc(C(C)(C)O)n1 [AZD1775] (first compound max 1 µM, partner max 1 µM)",-0.0132,0.0144,-0.0252,0.0025,-0.0501,-0.062,-0.0086,-0.0202,-0.0067,-0.0183,-0.0116,0.0426,0.02,0.0036,-0.0014,-0.0098,-0.0196,-0.0408,-0.0356,-0.0278
"CCN(CCO)CCCOc1ccc2c(Nc3cc(CC(=O)Nc4cccc(F)c4)[nH]n3)ncnc2c1 [AZD2811] + C[C@@H]1COCCN1C2=NC(=NC(=C2)C3(CC3)[S@](=N)(=O)C)C4=C5C=CNC5=NC=C4 [AZD6738] (first compound max 1 µM, 7x7, partner max 10 µM)",-0.0586,-0.038,-0.0188,-0.0239,-0.0585,-0.0656,-0.012,-0.0581,-0.112,-0.0308,-0.0535,-0.0628,-0.0123,-0.042,-0.0574,-0.007,-0.0854,-0.0499,-0.0385,-0.0432
"CCN(CCO)CCCOc1ccc2c(Nc3cc(CC(=O)Nc4cccc(F)c4)[nH]n3)ncnc2c1 [AZD2811] + O=C(c1cc(Cc2n[nH]c(=O)c3ccccc23)ccc1F)N1CCN(C(=O)C2CC2)CC1 [Olaparib] (first compound max 1 µM, 7x7, partner max 10 µM)",-0.0373,-0.0032,-0.027,0.0434,-0.0365,-0.0409,0.0242,-0.0088,0.0006,-0.0196,-0.0105,0.0082,0.0123,-0.015,0.0257,0.0231,-0.0152,-0.0525,-0.0208,-0.0168
"CN(CCO)CC[C@H](CSc1ccccc1)Nc1ccc(S(=O)(=O)NC(=O)c2ccc(N3CCC([C@@H](O)c4ccccc4-c4ccc(Cl)cc4)CC3)cc2)cc1S(=O)(=O)C(F)(F)F [AZD4320] + C=CCn1c(=O)c2cnc(Nc3ccc(N4CCN(C)CC4)cc3)nc2n1-c1cccc(C(C)(C)O)n1 [AZD1775] (first compound max 1 µM, partner max 1 µM)",-0.038,0.0801,0.0529,0.0279,0.0247,-0.078,-0.005,-0.0193,0.0162,0.0527,-0.0308,-0.01,-0.0299,0.0036,0.0609,0.11,-0.0387,0.0693,-0.0304,0.0666
"CN(CCO)CC[C@H](CSc1ccccc1)Nc1ccc(S(=O)(=O)NC(=O)c2ccc(N3CCC([C@@H](O)c4ccccc4-c4ccc(Cl)cc4)CC3)cc2)cc1S(=O)(=O)C(F)(F)F [AZD4320] + CN(C)CCCOc1ccc(-c2ccc3ncc4c(c3c2)n(C2CCOCC2)c(=O)n4C)cn1 [AZD0156] (first compound max 1 µM, 7x7, partner max 1 µM)",-0.0759,0.0435,-0.0982,0.0065,-0.0487,-0.0579,0.0269,-0.0476,-0.0888,-0.0078,-0.0284,-0.0016,-0.027,-0.0245,-0.01,0.0352,-0.0231,0.0035,-0.0339,-0.0296
"COc1nnc2ccc(N3CCC(c4ccc(OCCN5CCN(C)C(=O)[C@H]5C)cc4)CC3)nn12 [AZD5153] + C=CCn1c(=O)c2cnc(Nc3ccc(N4CCN(C)CC4)cc3)nc2n1-c1cccc(C(C)(C)O)n1 [AZD1775] (first compound max 1 µM, partner max 1 µM)",-0.0461,-0.0349,-0.0532,-0.0288,-0.079,-0.0036,-0.0483,-0.0518,0.0155,0.0051,-0.0286,0.0128,-0.0617,-0.0108,-0.0083,0.0305,-0.12,-0.0289,-0.022,-0.0027
"COc1nnc2ccc(N3CCC(c4ccc(OCCN5CCN(C)C(=O)[C@H]5C)cc4)CC3)nn12 [AZD5153] + CC1(C)CCC(CN2CCN(c3ccc(C(=O)NS(=O)(=O)c4ccc(NCC5CCOCC5)c([N+](=O)[O-])c4)c(Oc4cnc5[nH]ccc5c4)c3)CC2)=C(c2ccc(Cl)cc2)C1 [Venetoclax] (first compound max 1 µM, 7x7, partner max 1 µM)",-0.118,0.0229,-0.0447,0.0066,-0.0581,-0.0464,-0.088,-0.0315,-0.0243,0.0191,-0.0181,-0.0458,-0.0711,-0.063,-0.0766,-0.04,-0.0165,0.0565,-0.0515,-0.0295
"COc1nnc2ccc(N3CCC(c4ccc(OCCN5CCN(C)C(=O)[C@H]5C)cc4)CC3)nn12 [AZD5153] + CCN(CCO)CCCOc1ccc2c(Nc3cc(CC(=O)Nc4cccc(F)c4)[nH]n3)ncnc2c1 [AZD2811] (first compound max 1 µM, 7x7, partner max 1 µM)",-0.0549,-0.0268,0.0014,-0.0282,-0.0857,-0.0771,-0.0493,-0.0313,0.0143,0.0499,-0.0241,0.0367,-0.115,-0.0437,-0.0288,0.0233,-0.0951,0.0139,-0.0644,-0.0711
"COc1nnc2ccc(N3CCC(c4ccc(OCCN5CCN(C)C(=O)[C@H]5C)cc4)CC3)nn12 [AZD5153] + C[C@@H]1COCCN1C2=NC(=NC(=C2)C3(CC3)[S@](=N)(=O)C)C4=C5C=CNC5=NC=C4 [AZD6738] (first compound max 1 µM, 7x7, partner max 10 µM)",0.0147,0.0137,-0.0184,0.0175,-0.0392,-0.0069,-0.0881,-0.046,-0.006,0.0493,-0.0094,0.0593,-0.0075,0.0195,0.0607,0.0792,-0.0865,0.079,-0.0108,0.0365
"COc1nnc2ccc(N3CCC(c4ccc(OCCN5CCN(C)C(=O)[C@H]5C)cc4)CC3)nn12 [AZD5153] + Cc1c2c(nn1C)CSCc1cc(n(C)n1)CSc1cc(c3ccccc3c1)OCCCc1c(C(=O)O)n(C)c3c-2c(Cl)ccc13 [AZD5991] (first compound max 1 µM, 7x7, partner max 1 µM)",-0.061,0.0265,-0.0592,0.0198,-0.0488,-0.0428,0.0176,-0.0387,-0.0274,0.003,-0.021,0.0114,0.0012,-0.0482,0.0352,0.052,-0.0364,0.041,-0.0435,-0.058
